Measurements published in patent publication US12427195B1, “Methods of neoantigen identification” (La Jolla Institute for Immunology, priority 2019, dated 2025).

Key:
[1] = test system: E6+HLA-A*02:01+ tumor line (Caski); assay: Dynamic monitoring of killing of Caski tumor line; type: cell-based; details: Caski cells
Source text: (§1) FIG. 16B depicts dynamic monitoring of E6^+HLA-A*02:01^+tumor line (Caski) to assess the capacity of the engineered TCR to specifically kill tumor lines expressing the HPV E6 protein at 10:1 effector to target ratio. […] To assess non-specific (alloreactivity) background killing by the CD8 T cells, the growth of CD8 T cells that were stimulated and expanded but NOT subjected to CRISPR or LV editing are represented by Curve 3.

[2] = test system: patient-derived cancer line expressing the HPV E6 protein; assay: Dynamic monitoring of killing of patient-derived cancer line; type: cell-based, human
Source text: as §1, with “16A” for “16B”, “patient-derived cancer” for “E6^+HLA-A*02:01^+tumor”, “line” for “line (Caski)”, “the” for “the engineered”, “not” for “NOT”

N.N.[Cl][Pt][Cl] [cisplatin]
time to kill tumor line [1]: ≤ 48 h
time to kill tumor line [2]: ≤ 48 h
